This is an account of results in patent US7807676B2, “Diketo-Piperazine and Piperidine derivatives as antiviral agents” (priority 2006, dated 2010).

pEC50: −log10 of the molar value. Some results are limits rather than exact numbers.

The assay deals with HIV-1 single-round infectious reporter virus. The assay can be described thus: Single-round infectious HIV-1 luciferase reporter virus infection of HeLa CD4 cells (antiviral EC50). It is filed as cell-based. To be noted: Human immunodeficiency virus 1, HeLa, read-out: EC50 Group from Table 3. An outline of the steps:
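Env-pseudotyped single-round HIV-1 reporter virus (env-deleted provirus with luciferase in place of nef, made in 293 cells) infected HeLa CD4 cells at MOI ~0.01 with compound present, up to 10 μM final. Luciferase luminescence read after 72 h at 37 °C; EC50 from four-parameter logistic fit of % inhibition over 10 concentrations.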
Turning to `O=C(C(=O)N1CCN(c2cn[nH]c2-c2ccccn2)CC1)c1c[nH]c2c(-n3ccnn3)ncc(F)c12` [E-16, 1-(4-fluoro-7-(1H-1,2,3-triazol-1-yl)-1H-pyrrolo[2,3-c]pyridinyl-3-yl)-2-(4-(3-(pyridin-2-yl)-1H-pyrazol-4-yl)piperazin-1-yl)ethane-1,2-dione], the pEC50 is > 6.30.

Take `COc1cnc(-n2cnc(C)n2)c2[nH]cc(C(=O)C(=O)N3CCN(c4cn[nH]c4-c4ccccn4)CC3)c12` [E-17, 1-(4-methoxy-7-(3-methyl-1H-1,2,4-triazol-1-yl)-1H-pyrrolo[2,3-c]pyridinyl-3-yl)-2-(4-(3-(pyridin-2-yl)-1H-pyrazol-4-yl)piperazin-1-yl)ethane-1,2-dione]: the pEC50 is > 6.30. For `CN1CCN(C(=O)c2cc(-c3ncc(F)c4c(C(=O)C(=O)N5CCN(c6nnnn6-c6ccccc6)CC5)c[nH]c34)n[nH]2)CC1` [F-1] the value was > 6.30; for `CN1CCC(N(C)C(=O)c2cc(-c3ncc(F)c4c(C(=O)C(=O)N5CCN(c6nnnn6-c6ccccc6)CC5)c[nH]c34)n[nH]2)C1` (stereo not drawn) [F-2], > 6.30.

With `O=C(C(=O)N1CCN(c2nnnn2-c2ccccc2)CC1)c1c[nH]c2c(-c3cc(C(=O)N4CC[C@@H](O)C4)[nH]n3)ncc(F)c12` [F-3], the pEC50 is > 6.30. As to `O=C(C(=O)N1CCN(c2nnnn2-c2ccccc2)CC1)c1c[nH]c2c(-c3cc(C(=O)N4CCN(C(=O)C5CCCO5)CC4)[nH]n3)ncc(F)c12` (stereo not drawn) [F-4], the pEC50 is > 6.30. For `CC(=O)N1CCN(C(=O)c2cc(-c3ncc(F)c4c(C(=O)C(=O)N5CCN(c6nnnn6-c6ccccc6)CC5)c[nH]c34)n[nH]2)CC1` [F-5] the value was > 6.30; for `O=C(C(=O)N1CCN(c2nnnn2-c2ccccc2)CC1)c1c[nH]c2c(-c3cc(C(=O)N4CCC[C@H]4CO)[nH]n3)ncc(F)c12` [F-6], > 6.30; for `O=C(C(=O)N1CCN(c2nnnn2-c2ccccc2)CC1)c1c[nH]c2c(-c3cc(C(=O)N4CCN(CCN5CCOCC5)CC4)[nH]n3)ncc(F)c12` [F-7], > 6.30. For `O=C(C(=O)N1CCN(c2nnnn2-c2ccccc2)CC1)c1c[nH]c2c(-c3cc(C(=O)N4CCN(CCO)CC4)[nH]n3)ncc(F)c12` [F-8] the value was > 6.30; for `CCN(C)C(=O)c1cc(-c2ncc(F)c3c(C(=O)C(=O)N4CCN(c5nnnn5-c5ccccc5)CC4)c[nH]c23)n[nH]1` [F-9], > 6.30.

As to `O=C(C(=O)N1CCN(c2nnnn2-c2ccccc2)CC1)c1c[nH]c2c(-c3cc(C(=O)N4CCSC4)[nH]n3)ncc(F)c12` [F-10], the pEC50 is > 6.30. As to `O=C(C(=O)N1CCN(c2nnnn2-c2ccccc2)CC1)c1c[nH]c2c(-c3cc(C(=O)N4CCCC(O)C4)[nH]n3)ncc(F)c12` (stereo not drawn) [F-11], the pEC50 is > 6.30. As to `O=C(NCCCN1CCCC1=O)c1cc(-c2ncc(F)c3c(C(=O)C(=O)N4CCN(c5nnnn5-c5ccccc5)CC4)c[nH]c23)n[nH]1` [F-12], the pEC50 was > 6.30. For `CN1CCCC1CCNC(=O)c1cc(-c2ncc(F)c3c(C(=O)C(=O)N4CCN(c5nnnn5-c5ccccc5)CC4)c[nH]c23)n[nH]1` (stereo not drawn) [F-13] the value was > 6.30. In the case of `CC(=O)NCCNC(=O)c1cc(-c2ncc(F)c3c(C(=O)C(=O)N4CCN(c5nnnn5-c5ccccc5)CC4)c[nH]c23)n[nH]1` [F-14] it was > 6.30. In the case of `COCCN1CCN(C(=O)c2cc(-c3ncc(F)c4c(C(=O)C(=O)N5CCN(c6nnnn6-c6ccccc6)CC5)c[nH]c34)n[nH]2)CC1` [F-15] it was > 6.30; in that of `O=C(C(=O)N1CCN(c2nnnn2-c2ccccc2)CC1)c1c[nH]c2c(-c3cc(C(=O)N4CCC(O)CC4)[nH]n3)ncc(F)c12` [F-16], > 6.30; in that of `COc1cnc(-n2cnc(C)n2)c2[nH]cc(C(=O)C(=O)N3CCN(c4nonc4-c4ccccc4)CC3)c12` [G-1a], > 6.30.

Regarding `O=C(C(=O)N1CCN(c2nonc2-c2ccccc2)CC1)c1c[nH]c2c(-n3ccnn3)ncc(F)c12` [G-1b], the pEC50 is > 6.30.

Consider `COc1cnc(-c2cnc(N3CCN(C)CC3)cn2)c2[nH]cc(C(=O)C(=O)N3CCN(c4nnnn4-c4ccccc4)CC3)c12` [G-2a], for which the pEC50 was > 6.30. In the case of `COc1cnc(-c2cnc(N3CCOCC3)cn2)c2[nH]cc(C(=O)C(=O)N3CCN(c4nnnn4-c4ccccc4)CC3)c12` [G-2b] it was > 6.30; in that of `COc1cnc(-c2cnc(-n3ccnc3)cn2)c2[nH]cc(C(=O)C(=O)N3CCN(c4nnnn4-c4ccccc4)CC3)c12` [G-2c], > 6.30; in that of `COc1cnc(-n2cnc(C)n2)c2[nH]cc(C(=O)C(=O)N3CCN(c4ncccc4-c4ccccc4)CC3)c12` [G-3a], > 6.30. Consider `O=C(C(=O)N1CCN(c2ncccc2-c2ccccc2)CC1)c1c[nH]c2c(-n3ccnn3)ncc(F)c12` [G-3b], for which the pEC50 was > 6.30. In the case of `CN(C)c1nc(N2CCN(C(=O)C(=O)c3c[nH]c4c(-n5ccnn5)ncc(F)c34)CC2)n(-c2ccccc2)n1` [G-4a] it was > 6.30; in that of `COc1cnc(-n2cnc(C)n2)c2[nH]cc(C(=O)C(=O)N3CCN(c4nc(N(C)C)nn4-c4ccccc4)CC3)c12` [G-4b], > 6.30; in that of `CN(C)c1nc(N2CCN(C(=O)C(=O)c3c[nH]c4c(-n5ccnn5)ncc(F)c34)CC2)nn1-c1ccccc1` [G-4c], < 6.30. In the case of `COc1cnc(-n2cnc(C)n2)c2[nH]cc(C(=O)C(=O)N3CCN(c4nc(N(C)C)n(-c5ccccc5)n4)CC3)c12` [G-4d] it was > 6.30. In the case of `O=C(C(=O)N1CCN(c2c[nH]nc2-c2ccccc2)CC1)c1c[nH]c2c(-n3ccnn3)ncc(F)c12` [G-5a], the pEC50 was > 6.30. For `COc1cnc(-n2cnc(C)n2)c2[nH]cc(C(=O)C(=O)N3CCN(c4c[nH]nc4-c4ccccc4)CC3)c12` [G-5b] the value was > 6.30; for `COc1cnc(-n2cnc(C)n2)c2[nH]cc(C(=O)C(=O)N3CCN(c4cn(CCN(C)C)nc4-c4ccccc4)CC3)c12` [G-6a], > 6.30. In the case of `CN(C)CCn1cc(N2CCN(C(=O)C(=O)c3c[nH]c4c(-n5ccnn5)ncc(F)c34)CC2)c(-c2ccccc2)n1` [G-6b] it was > 6.30; in that of `COc1cnc(-n2cnc(C)n2)c2[nH]cc(C(=O)C(=O)N3CCN(c4cn(Cc5ccccn5)nc4-c4ccccc4)CC3)c12` [G-7a], > 6.30; in that of `O=C(C(=O)N1CCN(c2cn(Cc3ccccn3)nc2-c2ccccc2)CC1)c1c[nH]c2c(-n3ccnn3)ncc(F)c12` [G-7b], > 6.30. For `O=C(C(=O)N1CCN(c2[nH]nnc2-c2ccccc2)CC1)c1c[nH]c2c(-n3ccnn3)ncc(F)c12` [G-8a] the value was > 6.30; for `COc1cnc(-n2cnc(C)n2)c2[nH]cc(C(=O)C(=O)N3CCN(c4[nH]nnc4-c4ccccc4)CC3)c12` [G-8b], > 6.30. For `COc1cnc(-n2cnc(C)n2)c2[nH]cc(C(=O)C(=O)N3CCN(c4ccnn4-c4ccccc4)CC3)c12` [G-9a], the pEC50 is > 6.30. In the case of `O=C(C(=O)N1CCN(c2ccnn2-c2ccccc2)CC1)c1c[nH]c2c(-n3ccnn3)ncc(F)c12` [G-9b] it was > 6.30. For `O=C(C(=O)N1CCC(N2CCN=C2c2ccccc2)CC1)c1c[nH]c2c(-n3ccnn3)ncc(F)c12` [G-10a] the value was < 6.30.

On to `COc1cnc(-n2cnc(C)n2)c2[nH]cc(C(=O)C(=O)N3CCC(N4CCN=C4c4ccccc4)CC3)c12` [G-10b], for which the pEC50 was < 6.30. For `O=C(C(=O)N1CCC(n2ccnc2-c2ccccc2)CC1)c1c[nH]c2c(-n3ccnn3)ncc(F)c12` [G-11a] the value was > 6.30.
